Test results from patent US12593845B2 (priority 2019, dated 2026).

Columns and labels:
[1] = tested on: apple scab pathogen (Venturia inaequalis); test: Apple scab control test; format: in vivo; conditions: 336 h, 125 ppm drug solution sprayed onto apple seedlings (Orin), lesion area ratio 2 weeks after inoculation
Procedure: (§1) 5 parts by weight of the dihydropyrimidine compound of the present invention, 93.5 parts by weight of N,N-dimethylformamide, and 1.5 parts by weight of polyoxyethylene sorbitan monolaurate (TWEEN® 20) were mixed and dissolved to obtain an emulsion (I) including 5% of an active ingredient.
(§2) The control value was calculated by the following expression. Control value (%)=100−{lesion area ratio in treated group/lesion area ratio in untreated group}×100 [Expression 1]
Water was added to the emulsion (I) such that the concentration of the dihydropyrimidine compound reached 125 ppm to dissolve the emulsion, and a drug solution was obtained. Subsequently, the drug solution was sprayed onto apple seedlings (variety: “Orin”, leaf stage: 3 to 4) cultivated in seedling pots. After air drying, the seedlings were inoculated with conidiospores of an apple scab pathogen (Venturia inaequalis) (treated group). As a control, apple seedlings that were not sprayed with the drug solution were inoculated in the same manner (untreated group). The seedlings were left to stand in a humidified room at 20° C. using a 12 hour light/dark cycle.
On the day 2 weeks after the inoculation, the leaves of the apple seedlings were visually observed to determine the lesion area ratio, and the control value was calculated.

[2] = tested on: wheat brown rust pathogen (Puccinia recondita); test: Wheat brown rust control test; format: in vivo; conditions: 288 h, 125 ppm drug solution sprayed onto wheat seedlings (Norin 61), lesion area ratio 12 days after inoculation
Procedure: as §1, §2
Water was added to the emulsion (I) such that the concentration of the dihydropyrimidine compound reached 125 ppm to dissolve the emulsion, and a drug solution was obtained. Subsequently, the drug solution was sprayed onto wheat seedlings (variety: “Norin 61”, leaf stage: 1 to 2) cultivated in seedling pots. After air drying, uredospores of a wheat brown rust pathogen (Puccinia recondita) were sprinkled on wheat seedlings sprayed with the drug solution for inoculation (treated group). As a control, wheat seedlings that were not sprayed with the drug solution were inoculated in the same manner as described above (untreated group). The seedlings were left to stand in a greenhouse at 20° C.
On the 12 days after the inoculation, the leaves of the wheat seedlings were visually observed to determine the lesion area ratio, and the control value was calculated.

[3] = tested on: wheat powdery mildew pathogen (Erysiphe graminis f. sp. tritici); test: Wheat powdery mildew control test; format: in vivo; conditions: Blumeria graminis, 144 h; 125 ppm drug solution sprayed onto wheat seedlings (Chihoku); lesion area ratio 6 days after inoculation
Procedure: as §1, §2
Water was added to the emulsion (I) such that the concentration of the dihydropyrimidine compound reached 125 ppm to dissolve the emulsion, and a drug solution was obtained. Subsequently, the drug solution was sprayed onto wheat seedlings (variety: “Chihoku”, leaf stage: 1 to 2) cultivated in seedling pots. After air drying, conidiospores of a wheat powdery mildew pathogen (Erysiphe graminis f. sp. tritici) were sprinkled thereon for inoculation (treated group). As a control, wheat seedlings that were not sprayed with the drug solution were inoculated in the same manner as described above (untreated group). The seedlings were left to stand in a greenhouse at 20° C.
On the 6 days after the inoculation, the leaves of the wheat seedlings were visually observed to determine the lesion area ratio, and the control value was calculated.

Aspergillus niger = test: Antimicrobial test against Aspergillus niger; format: cell-based; conditions: 96 h, Vogel medium, 25° C., 4 days in the dark, turbidity at 405 nm, read-out: growth inhibition rate
Procedure: Spores of Aspergillus niger were added to and dispersed in a Vogel medium, and a dihydropyrimidine compound dissolved in dimethyl sulfoxide was added and mixed thereto at 25 ppm. The resulting solution was dispensed onto a 96-well microplate and cultivated in the dark at 25° C. for 4 days.
After the cultivation, the turbidity at a wavelength of 405 nm was measured by a microplate reader and compared with that in the untreated case to determine the growth inhibition of Aspergillus niger (%) was determined.

[4] = tested on: wheat powdery mildew pathogen (Erysiphe graminis f. sp. tritici); test: Wheat powdery mildew soil irrigation treatment test; format: in vivo; conditions: Blumeria graminis, 168 h; soil irrigation with 10 ml of 100 ppm drug solution per pot, wheat (Chihoku); inoculation after 8 to 10 days; lesion area ratio 7 days after inoculation
Procedure: as §1, §2
Pots (5.5 cm×5.5 cm) in which wheat seeds (variety: “Chihoku”) were disseminated were irrigated with 10 ml of a drug solution prepared by adding water to the emulsion (I) so as to have a concentration of the dihydropyrimidine compound of 100 ppm. After 8 to 10 days, conidiospores of a wheat powdery mildew pathogen (Erysiphe graminis f. sp. tritici) were sprinkled thereon for inoculation (treated group). As a control, wheat seedlings that were not treated with the drug were inoculated in the same manner as described above (untreated group). The seedlings were left to stand in a greenhouse at 20° C.
(§3) On the 7 days after the inoculation, the leaves of the wheat seedlings were visually observed to determine the lesion area ratio, and the control value was calculated.

[5] = tested on: wheat powdery mildew pathogen (Erysiphe graminis f. sp. tritici); test: Wheat powdery mildew seed treatment test; format: in vivo; conditions: Blumeria graminis, 168 h; seed treatment 100 g/100 kg wheat seeds (Chihoku); inoculation after 8 to 10 days; lesion area ratio 7 days after inoculation
Procedure: as §1, §2
The emulsion (I) was used to treat seeds such that (weight of dihydropyrimidine compound)/(weight of seeds) reached 100 g/100 kg based on the wheat seeds (variety: “Chihoku”). These seeds were disseminated in pots, and after 8 to 10 days, conidiospores of a wheat powdery mildew pathogen (Erysiphe graminis f. sp. tritici) were sprinkled thereon for inoculation (treated group). As a control, wheat seedlings that were not treated with the drug were inoculated in the same manner as described above (untreated group). The seedlings were left to stand in a greenhouse at 20° C.
as §3

Row | Compound | pest or weed control at 125 ppm [1] | pest or weed control at 125 ppm [2] | pest or weed control at 125 ppm [3] | inhibition at 25 ppm (Aspergillus niger) | pest or weed control at 100 ppm [4] | pest or weed control at 100 g/100 kg seed [5]
1 | COc1ccc(F)cc1C(Cn1cc(/C(C)=N/OC(C)C)c(=O)n(CC(C)(C)C(=O)NC(C)C)c1=O)OCCC#N (stereo not shown) [A-1] | ≥ 75% | ≥ 75% | ≥ 75% | ≥ 50% | – | –
2 | COc1ccc(F)cc1C(O)Cn1cc(/C(C)=N/OC(C)C)c(=O)n(CC(C)(C)C(=O)NC(C)C)c1=O (stereo not shown) [A-2] | ≥ 75% | ≥ 75% | ≥ 75% | – | – | –
3 | COc1ccc(F)cc1C(Cn1cc(C=NOCC(F)F)c(=O)n(C(C)C(=O)NC(C)C)c1=O)OCCC#N (stereo not shown) [A-10] | ≥ 75% | ≥ 75% | ≥ 75% | – | – | –
4 | CCCON=Cc1cn(CC(OCCC#N)c2cc(F)ccc2OC)c(=O)n(C(C)C(=O)NC(C)C)c1=O (stereo not shown) [A-11] | ≥ 75% | ≥ 75% | ≥ 75% | – | – | –
5 | CCON=Cc1cn(CC(OCCC#N)c2cc(F)ccc2OC)c(=O)n(CCNC(=O)C(C)C)c1=O (stereo not shown) [A-17] | ≥ 75% | ≥ 75% | ≥ 75% | – | – | –
6 | CCO/N=C(\C)c1cn(CC(O)c2cc(F)ccc2OC)c(=O)n(CC(C)(C)C(=O)NC(C)C)c1=O (stereo not shown) [A-25] | ≥ 75% | ≥ 75% | – | – | – | –
7 | CCO/N=C(\C)c1cn(CC(O)c2cc(F)ccc2OC)c(=O)n(C2CCCC2NC(=O)C(C)C)c1=O (stereo not shown) [A-48] | ≥ 75% | ≥ 75% | ≥ 75% | – | – | –
8 | COc1ccccc1C(O)Cn1cc(/C(C)=N/OC(C)C)c(=O)n(C[C@H](C)NC(=O)C(C)C)c1=O (stereo partly shown) [A-58] | ≥ 75% | – | ≥ 75% | ≥ 50% | ≥ 75% | ≥ 75%
9 | COc1ccc(F)cc1C(Cn1cc(C=NOC(C)C)c(=O)n(C(C)C(=O)N2CCCCC2)c1=O)OCCC#N (stereo not shown) [A-69] | – | ≥ 75% | ≥ 75% | – | – | –
10 | C=C1CCN(C(=O)C(C)n2c(=O)c(C=NOC(C)C)cn(CC(O)c3cc(F)ccc3OC)c2=O)CC1 (stereo not shown) [A-70] | ≥ 75% | ≥ 75% | ≥ 75% | – | – | –
11 | CCON=Cc1cn(CC(OC)c2cc(F)ccc2OC)c(=O)n(C(C)C(=O)NC(C)C)c1=O (stereo not shown) [A-91] | ≥ 75% | ≥ 75% | ≥ 75% | – | – | –
12 | COc1ccc(F)cc1C(Cn1cc(/C(C)=N/OC(C)C)c(=O)n(CCN(C)C(=O)C(C)C)c1=O)OC (stereo not shown) [A-99] | ≥ 75% | ≥ 75% | ≥ 75% | – | – | –
13 | COc1ccc(F)cc1C(O)Cn1cc(/C(C)=N/OC(C)C)c(=O)n(C[C@@H](NC(=O)C(C)=O)C(C)C)c1=O (stereo partly shown) [C-73] | – | – | – | ≥ 50% | ≥ 75% | ≥ 75%
14 | COCC(=O)N[C@H](Cn1c(=O)c(/C(C)=N/OC(C)C)cn(CC(O)c2cc(F)ccc2OC)c1=O)C(C)C (stereo partly shown) [C-83] | – | – | – | ≥ 50% | ≥ 75% | ≥ 75%
15 | CC[C@@H](Cn1c(=O)c(/C(C)=N/OC(C)C)cn(CC(O)c2ccccc2OC)c1=O)NC(=O)C(C)C (stereo partly shown) [C-93] | – | – | – | ≥ 50% | ≥ 75% | ≥ 75%
16 | CCCC(=O)N[C@H](Cn1c(=O)c(/C(C)=N/OC(C)C)cn(CC(O)c2ccccc2OC)c1=O)C(C)C (stereo partly shown) [C-95] | – | – | – | ≥ 50% | ≥ 75% | ≥ 75%
17 | COc1ccccc1C(O)Cn1cc(/C(C)=N/OC(C)C)c(=O)n(C[C@@H](NC(=O)C2CC2)C(C)C)c1=O (stereo partly shown) [C-99] | – | – | – | ≥ 50% | ≥ 75% | ≥ 75%
18 | C=C(C)C(=O)N[C@H](Cn1c(=O)c(/C(C)=N/OC(C)C)cn(CC(O)c2cc(F)ccc2OC)c1=O)C(C)C (stereo partly shown) [C-101] | – | – | – | ≥ 50% | ≥ 75% | ≥ 75%
19 | CCO/N=C(\C)c1cn(CC(O)c2cc(F)ccc2OC)c(=O)n(C[C@@H](NC(=O)C(C)C)C(C)C)c1=O (stereo partly shown) [C-107] | – | – | – | ≥ 50% | ≥ 75% | ≥ 75%
20 | CCC(=O)N[C@H](Cn1c(=O)c(/C(C)=N/OC(C)C)cn(CC(O)c2cc(F)ccc2OC)c1=O)C(C)C (stereo partly shown) [C-117] | – | – | – | ≥ 50% | ≥ 75% | ≥ 75%
21 | COc1ccc(F)cc1C(O)Cn1cc(/C(C)=N/OC(C)C)c(=O)n(C[C@@H](NC(=O)C(C)C)C(C)(C)C)c1=O (stereo partly shown) [C-148] | – | – | – | ≥ 50% | ≥ 75% | ≥ 75%
22 | CC[C@@H](Cn1c(=O)c(/C(C)=N/OC(C)C)cn(CC(O)c2cc(F)ccc2OC)c1=O)NC(=O)C(C)C (stereo partly shown) [C-154] | – | – | – | ≥ 50% | ≥ 75% | ≥ 75%
23 | C=Cc1ccccc1C(O)Cn1cc(/C(C)=N/OC(C)C)c(=O)n(C[C@H](C)NC(=O)C(C)C)c1=O (stereo partly shown) [C-160] | – | – | – | ≥ 50% | ≥ 75% | ≥ 75%
24 | COc1ccccc1C(O)Cn1cc(/C(C)=N/OC(C)C)c(=O)n(C[C@@H](NC(=O)C(C)C)C(C)C)c1=O (stereo partly shown) [C-170] | – | – | – | ≥ 50% | ≥ 75% | ≥ 75%
25 | COc1ccc(F)cc1C(O)Cn1cc(/C(C)=N/OC(C)C)c(=O)n(C[C@H](C)NC(=O)N(C)C)c1=O (stereo partly shown) [C-179] | – | – | – | ≥ 50% | ≥ 75% | ≥ 75%
26 | CCc1ccccc1C(O)Cn1cc(/C(C)=N/OC(C)C)c(=O)n(C[C@H](C)NC(=O)C(C)C)c1=O (stereo partly shown) [C-197] | – | – | – | ≥ 50% | ≥ 75% | ≥ 75%
27 | COc1ccc(F)cc1C(O)Cn1cc(/C(C)=N/OC(C)C)c(=O)n(C[C@H](CC(C)C)NC(=O)C(C)C)c1=O (stereo partly shown) [C-199] | – | – | – | ≥ 50% | ≥ 75% | ≥ 75%
28 | COc1ccc(F)cc1C(O)Cn1cc(/C(C)=N/OC(C)C)c(=O)n(C[C@@H](NC(C)=O)C(C)C)c1=O (stereo partly shown) [C-207] | – | – | – | ≥ 50% | ≥ 75% | ≥ 75%
29 | COc1ccc(F)cc1C(O)Cn1cc(/C(C)=N/OC(C)C)c(=O)n(C[C@@H](NC(=O)C(C)C)C(C)C)c1=O (stereo partly shown) [C-210] | – | – | – | ≥ 50% | ≥ 75% | ≥ 75%
